From patent US20240309447A1, “METHODS AND KITS FOR PREPARING A SAMPLE […] OR MORE RNA MOLECULES FOR SEQUENCING” (The Hong Kong University of Science and Technology, priority 2023, published 2024)

Assays:
Format in all cases: biochemical
[1] = molecular target: T1, E coli. poly(A) polymerase (Escherichia coli, UniProt P0ABF1); experiment: Poly(A) polymerase-based extension of model short RNA (A-terminated), Urea-PAGE; settings: for addition of nucleotide analogue sequence to the 3′ termini of the model short RNA: 1 mM analogue, 15 minutes, model short RNA (A-terminated)
T1 sequence (P0ABF1 11-465): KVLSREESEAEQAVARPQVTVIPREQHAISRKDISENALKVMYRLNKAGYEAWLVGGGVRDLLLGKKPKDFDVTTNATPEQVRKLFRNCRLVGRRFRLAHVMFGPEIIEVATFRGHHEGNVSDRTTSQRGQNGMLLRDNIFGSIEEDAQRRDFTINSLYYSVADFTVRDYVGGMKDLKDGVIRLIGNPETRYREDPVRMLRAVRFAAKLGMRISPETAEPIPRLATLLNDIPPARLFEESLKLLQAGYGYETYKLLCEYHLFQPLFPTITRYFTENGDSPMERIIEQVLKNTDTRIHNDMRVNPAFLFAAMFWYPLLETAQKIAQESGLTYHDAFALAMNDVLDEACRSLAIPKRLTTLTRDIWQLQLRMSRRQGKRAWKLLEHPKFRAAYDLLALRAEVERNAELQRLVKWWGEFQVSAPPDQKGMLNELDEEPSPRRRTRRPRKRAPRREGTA
Protocol: The reaction cocktail was used in the subsequent studies as described in examples below.
ATP was used as the positive control. The reaction cocktail for the poly(A) polymerase-based extension for each of the nucleoside analogue triphosphates and ATP was prepared as described in Table 2. The 10 μL of the reaction cocktail was incubated at 37° C. for 15 minutes to allow the extension of the adenine nucleotides (A) or nucleotide analogues. The reacted RNA products were visualized using Urea-PAGE.
The experiment was further repeated for 2-Amino-6-Cl-purine-rTP addition by poly(A) polymerase-based extension with different incubation times, i.e. 5, 10, 15, 20 minutes respectively. Addition of ATP by poly(A) polymerase-based extension with 20-minute incubation time was used as the positive control. The reacted RNA products were visualized using Urea-PAGE.

[2] = molecular target: T1, E coli. poly(A) polymerase; experiment: Poly(A) polymerase-based extension of C, G and U-terminated model short RNAs, Urea-PAGE; settings: for addition of oligo nucleotide analogue to model short RNAs with different 3′ terminal bases: 1 mM, 37° C., 15 minutes
Protocol: In this example, 2-Amino-ATP, 2-Amino-6-Cl-purine-rTP and 2′-F-dATP have been tested for poly(A) polymerase-based extension to add the respective oligo nucleotide analogue sequences to the 3′ termini of model short RNAs with different terminal bases other than A, i.e. C, G and U-terminated model short RNAs as shown in Table 1. ATP was used as the positive control. The reaction cocktail for the poly(A) polymerase-based extension for each model short RNA was prepared as described in Table 2. The 10 μL of the reaction mixture was incubated at 37° C. for 15 minutes to allow the addition of 2-Amino-6-Cl-purine-rTP to the model short RNAs. The reacted RNA products were visualized using Urea-PAGE.

[3] = molecular target: T1, E coli. poly(A) polymerase; experiment: Poly(A) polymerase-based extension of model mRNA mixture, Fragment Analyzer; settings: mixture of CLuc-53AGGCCCCU, EGFP-40A, UnaG-120A; 15-minute extension
From the text: In this example, three model mRNAs CLuc-53AGGCCCCU, EGFP-40A, and UnaG-120A as shown in Table 1 are mixed in an equal amount to create a model mRNA mixture. The same poly(A) polymerase-based extension as described in Example 5 was used to add 2-Amino-6-Cl-purine-rTP to the model RNA mixture. Fragment Analyzer (Agilent®) was used to measure the lengths of the model RNA mixture before and after the reaction.

[4] = molecular target: T1, E coli. poly(A) polymerase; experiment: One-pot 3′ extension of model short RNA, Urea-PAGE; settings: 15 minutes analogue, then ATP added, 37° C.
Protocol: In this example, the reaction cocktail for the one-pot 3′ extension of model short RNA (as shown in Table 1) was prepared as described in Table 4. The reaction cocktail (without ATP) was incubated at 37° C. for 15 minutes to allow for 2-Amino-6-Cl-purine-rTP addition. After 15 minutes of reaction, 1 μL of 10 mM ATP (New England BioLabs®) was directly added into the reaction mixture, and further incubated for different durations of time at 37° C.

[5] = molecular target: T1, E coli. poly(A) polymerase; experiment: Poly(A) polymerase-based reaction with different nucleotide analogues and their combination on UnaG-120A mRNA, Fragment Analyzer; settings: for addition to UnaG-120A mRNA by poly(A) polymerase: 1 mM total analogue, 37° C., 15 minutes; for appearance of the RNA product: UnaG-120A mRNA, Fragment Analyzer
Protocol: In this example, the ability of poly(A) polymerase-based reaction to add different nucleotide analogues to the 3′ termini of UnaG-120A mRNA as the oligo nucleotide analogue sequence has been tested. […] The 10 μL of the reaction mixture was incubated at 37° C. for 15 minutes. The reacted RNA products were visualized using Fragment Analyzer.

In the case of `Nc1nc(Cl)c2ncn(C3OC(COP(=O)(O)OP(=O)(O)OP(=O)(O)O)C(O)C3O)c2n1` (stereo not shown) [2-Amino-6-Cl-purine-rTP], the “addition of nucleotide analogue sequence to the 3′ termini of the model short RNA” value (“addition of nucleotide analogue sequence” below) ([1]; 37° C.) is reported as “successfully added”, the “time within which the reaction was complete” value ([1]; 37° C., 1 mM) is reported as 10 to 20 min and the “nucleotides added to the 3′ terminus of model short RNA” value ([1]; 5 minutes incubation, 37° C., 1 mM) is reported as “over 60 nts”. The “length of tailed model short RNA product” value ([1]; 5 minutes incubation, original RNA 136 nt) was over 196 nt, the “comparison among nucleotide analogues” value [2] was “produced the best results” and the “addition of oligo nucleotide analogue to model short RNAs with different 3′ terminal bases” value [2] was “successfully added”. The “addition of oligo sequence to model mRNAs (upward band shift)” value [3] was “added to all model mRNAs”, the “sequential addition of oligo analogue sequence and oligo(A) sequence” value [4] was “successfully added” and the “addition to UnaG-120A mRNA by poly(A) polymerase” value [5] was “can be added”. For the same molecule, the “appearance of the RNA product” value [5] was “upshifted clear main band”.

`Nc1ncnc2c1ncn2C1OC(COP(=O)(O)OP(=O)(O)OP(=O)(O)O)C(O)C1F` (stereo not shown) [2′-F-dATP] was tested, and the “addition of nucleotide analogue sequence” value ([1]; 37° C.) was “successfully added” and the “addition of oligo nucleotide analogue to model short RNAs with different 3′ terminal bases” value [2] was “successfully added”.

With `Nc1nc(N)c2ncn(C3OC(COP(=O)(O)OP(=O)(O)OP(=O)(O)O)C(O)C3O)c2n1` (stereo not shown) [2-Amino-ATP] the “addition of nucleotide analogue sequence” value ([1]; 37° C.) was “successfully added”, the “addition of oligo nucleotide analogue to model short RNAs with different 3′ terminal bases” value [2] was “successfully added” and the “addition to UnaG-120A mRNA by poly(A) polymerase” value [5] was “can be added”. For the same molecule, the “appearance of the RNA product” value [5] was “distribution of RNA sizes shown as a smear”.
